Results as given in patent publication US9049864B2, “Pyridazinone herbicidal compounds” (Syngenta Limited, priority 2012, dated 2015).

Tests used:
Assay in all cases: Post-emergence herbicidal glasshouse test, percentage damage to the plant
Format in all cases: in vivo
[1] = tested on: Alopecurus myosuroides (ALOMY)
Procedure: (§1) Seeds of a variety of test species are sown in standard soil in pots:—Solanum nigrum (SOLNI), Amaranthus retoflexus (AMARE), Setaria faberi (SETFA), Alopecurus myosuroides (ALOMY), Echinochloa crus-galli (ECHCG), Ipomoea hederacea (IPOHE). After 8 days cultivation (post-emergence) under controlled conditions in a glasshouse (at 24/16° C., day/night; 14 hours light; 65% humidity), the plants are sprayed with an aqueous spray solution derived from the formulation of the technical active ingredient in acetone/water (50:50) solution containing 0.5% Tween 20 (polyoxyethelyene sorbitan monolaurate, CAS RN 9005-64-5). Compounds are applied at 1000 g/ha. The test plants are then grown in a glasshouse under controlled conditions in a glasshouse (at 24/16° C., day/night; 14 hours light; 65% humidity) and watered twice daily. After 13 days, the test is evaluated for the percentage damage caused to the plant. The biological activities are shown in the following table on a five point scale (5=80-100%; 4=60-79%; 3=40-59%; 2=20-39%; 1=0-19%). A comparative experiment is conducted to compare the biological efficacy of a compound of the present invention with those of WO 2011/045271. The test is performed as outlined above using the following compounds. Three different application rates are employed (250 g/ha, 500 g/ha and 1000 g/ha).

[2] = tested on: Amaranthus retoflexus (AMARE)
Procedure: as §1

[3] = tested on: Echinochloa crus-galli (ECHCG)
Procedure: as §1

[4] = tested on: Ipomoea hederacea (IPOHE)
Procedure: as §1

[5] = tested on: Setaria faberi (SETFA)
Procedure: as §1

[6] = tested on: Solanum nigrum (SOLNI)
Procedure: as §1

[7] = post-emergence, 1000 g/ha, evaluated after 13 days
[8] = comparative experiment, rate 250 g/ha
[9] = comparative experiment, rate 500 g/ha
[10] = comparative experiment, rate 1000 g/ha

| Structure (SMILES) | POST Application ALOMY, percentage damage (five point scale) [1, 7] | POST Application AMARE, percentage damage (five point scale) [2, 7] | POST Application ECHCG, percentage damage (five point scale) [3, 7] | POST Application IPOHE, percentage damage (five point scale) [4, 7] | POST Application SETFA, percentage damage (five point scale) [5, 7] | POST Application SOLNI, percentage damage (five point scale) [6, 7] | also measured |
| --- | --- | --- | --- | --- | --- | --- | --- |
| CN1N=CC(=O)C(n2ccc3ccccc32)C1=O (stereo not drawn) [Compound 1.014] | 1 (1=0-19%) | 3 (3=40-59%) | 4 (4=60-79%) | 4 (4=60-79%) | 1 (1=0-19%) | 5 (5=80-100%) | – |
| COCC1=NN(C)C(=O)C(n2c(Cl)c(Cl)c3ccccc32)C1=O (stereo not drawn) [Compound 2.008] | 1 (1=0-19%) | 3 (3=40-59%) | 1 (1=0-19%) | 5 (5=80-100%) | 1 (1=0-19%) | 5 (5=80-100%) | – |
| CN1N=C(Br)C(=O)C(n2c(Cl)c(Cl)c3ccccc32)C1=O (stereo not drawn) [Compound 2.028] | 1 (1=0-19%) | 5 (5=80-100%) | 1 (1=0-19%) | 5 (5=80-100%) | 1 (1=0-19%) | 5 (5=80-100%) | – |
| CC1=NN(C)C(=O)C(n2ccc3ccccc32)C1=O (stereo not drawn) [Compound 1.002] | 1 (1=0-19%) | 4 (4=60-79%) | 1 (1=0-19%) | 4 (4=60-79%) | 1 (1=0-19%) | 5 (5=80-100%) | – |
| Cc1nn(C)c(=O)c(-n2c(Cl)c(Cl)c3ccccc32)c1OC(=O)SC(C)(C)C [Compound 3.007] | 1 (1=0-19%) | 5 (5=80-100%) | 1 (1=0-19%) | 5 (5=80-100%) | 1 (1=0-19%) | 5 (5=80-100%) | – |
| CC1=NN(C)C(=O)C(n2c(Br)c(Br)c3ccc(Br)cc32)C1=O (stereo not drawn) [Compound 1.023] | 2 (2=20-39%) | 5 (5=80-100%) | 3 (3=40-59%) | 5 (5=80-100%) | 1 (1=0-19%) | 5 (5=80-100%) | – |
| CC(=O)Oc1c(C)nn(C)c(=O)c1-n1nc(Cl)c2ccccc21 [Compound 3.006] | 2 (2=20-39%) | 4 (4=60-79%) | 4 (4=60-79%) | 5 (5=80-100%) | 1 (1=0-19%) | 5 (5=80-100%) | – |
| CN1N=CC(=O)C(n2ccc3cc(Cl)ccc32)C1=O (stereo not drawn) [Compound 1.017] | 1 (1=0-19%) | 3 (3=40-59%) | 1 (1=0-19%) | 4 (4=60-79%) | 1 (1=0-19%) | 5 (5=80-100%) | – |
| COC(=O)Oc1c(C)nn(C)c(=O)c1-n1nc(Cl)c2ccccc21 [Compound 3.005] | 1 (1=0-19%) | 4 (4=60-79%) | 3 (3=40-59%) | 5 (5=80-100%) | 1 (1=0-19%) | 5 (5=80-100%) | – |
| CC1=NN(C)C(=O)C(n2nc(C(F)(F)F)cc2C)C1=O (stereo not drawn) [Compound A, reference compound] | – | – | – | – | – | – | POST Application ALOMY, percentage damage (five point scale) [1, 8]: 1 (1=0-19%); POST Application ALOMY, percentage damage (five point scale) [1, 9]: 1 (1=0-19%); POST Application ALOMY, percentage damage (five point scale) [1, 10]: 2 (2=20-39%); POST Application AMARE, percentage damage (five point scale) [2, 8]: 3 (3=40-59%); POST Application AMARE, percentage damage (five point scale) [2, 9]: 4 (4=60-79%); POST Application AMARE, percentage damage (five point scale) [2, 10]: 4 (4=60-79%); POST Application ECHCG, percentage damage (five point scale) [3, 8]: 1 (1=0-19%); POST Application ECHCG, percentage damage (five point scale) [3, 9]: 2 (2=20-39%); POST Application ECHCG, percentage damage (five point scale) [3, 10]: 3 (3=40-59%); POST Application IPOHE, percentage damage (five point scale) [4, 8]: 4 (4=60-79%); POST Application IPOHE, percentage damage (five point scale) [4, 9]: 5 (5=80-100%); POST Application IPOHE, percentage damage (five point scale) [4, 10]: 5 (5=80-100%); POST Application SETFA, percentage damage (five point scale) [5, 8]: 1 (1=0-19%); POST Application SETFA, percentage damage (five point scale) [5, 9]: 1 (1=0-19%); POST Application SETFA, percentage damage (five point scale) [5, 10]: 2 (2=20-39%); POST Application SOLNI, percentage damage (five point scale) [6, 8]: 3 (3=40-59%); POST Application SOLNI, percentage damage (five point scale) [6, 9]: 4 (4=60-79%); POST Application SOLNI, percentage damage (five point scale) [6, 10]: 5 (5=80-100%) |
| COC(=O)Oc1c(C)nn(C)c(=O)c1-n1c(Cl)c(Cl)c2ccccc21 [Compound 3.004] | 2 (2=20-39%) | 5 (5=80-100%) | 4 (4=60-79%) | 5 (5=80-100%) | 2 (2=20-39%) | 5 (5=80-100%) | – |
| CC1=NN(C)C(=O)C(n2c(Br)c(Cl)c3ccccc32)C1=O (stereo not drawn) [Compound 1.026] | 2 (2=20-39%) | 5 (5=80-100%) | 4 (4=60-79%) | 5 (5=80-100%) | 3 (3=40-59%) | 5 (5=80-100%) | – |
| CC1=NN(C)C(=O)C(n2c(Cl)c(Cl)c3ccccc32)C1=O (stereo not drawn) [Compound 1.003, 4-(2,3-dichloroindol-1-yl)-2,6-dimethyl-pyridazine-3,5-dione] | 1 (1=0-19%) | 5 (5=80-100%) | 2 (2=20-39%) | 5 (5=80-100%) | 1 (1=0-19%) | 5 (5=80-100%) | – |
| COCCOCC1=NN(C)C(=O)C(n2c(Cl)c(Cl)c3ccccc32)C1=O (stereo not drawn) [Compound 2.015] | 1 (1=0-19%) | 2 (2=20-39%) | 1 (1=0-19%) | 5 (5=80-100%) | 1 (1=0-19%) | 4 (4=60-79%) | – |
| CCCCC1=NN(C)C(=O)C(n2c(Cl)c(Cl)c3ccccc32)C1=O (stereo not drawn) [Compound 2.010] | 1 (1=0-19%) | 3 (3=40-59%) | 1 (1=0-19%) | 3 (3=40-59%) | 1 (1=0-19%) | 4 (4=60-79%) | – |
